Measured values from US20260232666A1, “COMPOSITIONS AND METHODS FOR INHIBITION OF RAS” (TheRas, Inc., priority 2023, published 2026).

Tests used:
[1] = target: T1, GTP-loaded KRAS4b (amino acids 1-169) G12C/C118S protein (Homo sapiens, UniProt P01116, C118S/G12C); test: Covalent cysteine 12 modification by MALDI-TOF MS, GTP-loaded KRAS G12C; assay type: binding; settings: 15 minutes reaction time point
T1 construct: KRAS4b (amino acids 1-169) G12C/C118S protein; made in house
How it was run: (§1)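 Percent modification comes from MALDI-TOF peak heights: the compound-adduct peak divided by the sum of the remaining-protein and adduct peaks. Reactions contained 1 μM protein and compound at a 1:2.5 ratio, in pH 7.3 HEPES buffer with NaCl and MgCl2, held 15 min at room temperature.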

[2] = target: T2, GDP-loaded KRAS4b (amino acids 1-169) G12C/C118S protein (Homo sapiens, UniProt P01116, C118S/G12C); test: Covalent cysteine 12 modification by MALDI-TOF MS, GDP-loaded KRAS G12C; assay type: binding; settings: 15 minutes reaction time point
T2 construct: KRAS4b (amino acids 1-169) G12C/C118S protein; made in house
How it was run: as §1

[3] = target: T3, Avi-KRAS G12C (1-169) GppNHp/RAF1 RBD-3×FLAG (52-151) (Homo sapiens, UniProt P01116, G12C); test: Raf1 RBD-KRAS G12C-GppNHp disruption assay (protein:protein interaction HTRF); assay type: biochemical
T3 construct: Avi-KRAS G12C (1-169) GppNHp; Avi (N)
Procedure: Biological Example 2: Disrupting KRAS G12C-Effector Binding (Protein: Protein Interaction HTRF Assay)
A protein: protein interaction (PPI) Homogeneous Time Resolved Fluorescence (HTRF) assay was used to determine the effectiveness of compounds of the present disclosure in disrupting KRAS G12C protein and effector (RAF1 Ras Binding Domain (RBD)) binding.
The HTRF assay used the following reagents and proteins: 50 nM Avi-KRAS G12C (1-169) GppNHp/RAF1 RBD-3×FLAG (52-151); 35 nM Avi-PI3K RBD-3×FLAG; Assay Buffer: 50 mM Tris pH 7.5, 100 mM NaCl, 5 mM MgCl2, 0.1% BSA, 0.01% Tween 20, 10% DMSO; Bead Buffer: 50 mM Tris pH 7.5, 0.01% Tween 20; Assay volume: 20 μL (384 well plate-low volume format); and Compound titration: 30-0.02 μM, 3× dilution series.
The HTRF assay employed the following protocol:
Compounds were dispensed in assay plate (384-well, Grenier Bio-One #784075) using Echo (model 555) with dose response settings: 200 nL final volume, titration from 100 μM as a 10-point dilution series. KRAS proteins were prepared in assay buffer, and dispensed on plates, 5 μL per well, then incubated for 1 h at room temperature, with 700 rpm shaking. RAF1 RBD were prepared in assay buffer, dispensed onto plates, 5 μL per well, and then incubated for 1 h at room temperature, with 700 rpm shaking. Reagent mix was then prepared and dispensed on plates, 10 μL per well, and then incubated for 1 h at room temperature, with 700 rpm shaking.
Plates were analyzed on an Envision plate reader using the following setting: Excitation 320 nm, Bandwidth 75 nm; Emission 615 nm, Bandwidth 85 nm; Gain 100%; Flashes 100; Lag 60 μs. Data was reported as percentage of activity, with DMSO as 100%. Data was plotted and analyzed using Prism 8.
The percent of modification of GppNHp, GTP, or GDP loaded KRAS G12C by MALDI-TOF MS, biochemical Raf1 RBD-KRAS G12C-GppNHp disruption assay IC50, and pERK inhibition IC50 of selected compounds described herein are shown in Table 4. For percent of modification at 15 minutes (MALDI-TOF MS) of GppNHp, GTP, or GDP loaded KRAS G12C: A: percent of modification ≥70%; B: 50≤percent of modification <70%; C: 10%≤percent of modification <50%; D: percent of modification <10%. […] For pERK inhibition in H358 cell assay: A: IC50≤0.1 μM; B: 0.1 μM<IC50≤1 μM; C: IC50>1 μM. Blanks in the table represent that compound was not tested in the indicated assay.

## C=CC(=O)N1C[C@H](C)N(c2nc(OC[C@@]34CCCN3C[C@H](F)C4)nc3c(F)c(-c4ccc(F)c5sc(N)c(C#N)c45)c(Cl)cc23)C[C@H]1C (atropisomer, axis not shown) [Compound 102]
[1]
  GTP-KRAS G12C percent of modification: A (percent of modification ≥70%)
[2]
  GDP-KRAS G12C percent of modification: A (percent of modification ≥70%)
[3]
  IC50: < 500 nM

## C=CC(=O)N1C[C@H](C)N(c2nc(OC[C@@]34CCCN3C[C@H](F)C4)nc3c(F)c(-c4ccc(F)c5sc(N)c(C#N)c45)c(Cl)cc23)C[C@H]1C (atropisomer, axis not shown) [Compound 103]
[1]
  GTP-KRAS G12C percent of modification: D (percent of modification <10%)
[2]
  GDP-KRAS G12C percent of modification: D (percent of modification <10%)
[3]
  IC50: 5000 to 20000 nM

## C=CC(=O)N1CC[C@@H](N(C)c2nc(OC[C@@H]3CC4(CC4)CN3C)nc3c(F)c(-c4ccc(F)c5sc(N)c(C#N)c45)c(C(F)(F)F)cc23)[C@@H]1C (atropisomer, axis not shown) [Compound 111]
[1]
  GTP-KRAS G12C percent of modification: A (percent of modification ≥70%)
[2]
  GDP-KRAS G12C percent of modification: A (percent of modification ≥70%)
[3]
  IC50: < 500 nM

## C=CC(=O)N1CC[C@@H](N(CC)c2nc(OC[C@@H]3C[C@@H](F)CN3C)nc3c(F)c(-c4ccc(F)c5sc(N)c(C#N)c45)c(C(F)(F)F)cc23)[C@H]1C (atropisomer, axis not shown) [Compound 113]
[1]
  GTP-KRAS G12C percent of modification: A (percent of modification ≥70%)
[2]
  GDP-KRAS G12C percent of modification: A (percent of modification ≥70%)
[3]
  IC50: < 500 nM

## C=CC(=O)N1CC[C@@H](N(CC)c2nc(OC[C@@H]3C[C@@H](F)CN3C)nc3c(F)c(-c4ccc(F)c5sc(N)c(C#N)c45)c(C(F)(F)F)cc23)[C@H]1C (atropisomer, axis not shown) [Compound 114]
[1]
  GTP-KRAS G12C percent of modification: D (percent of modification <10%)
[2]
  GDP-KRAS G12C percent of modification: D (percent of modification <10%)
[3]
  IC50: 5000 to 20000 nM

## C=CC(=O)N1CC[C@@H](N(C)c2nc(OC[C@@H]3CCCN3C)nc3c(F)c(-c4ccc(F)c5sc(N)c(C#N)c45)c(Cl)cc23)[C@H]1C (atropisomer, axis not shown) [Compound 118]
[1]
  GTP-KRAS G12C percent of modification: A (percent of modification ≥70%)
[2]
  GDP-KRAS G12C percent of modification: A (percent of modification ≥70%)
[3]
  IC50: < 500 nM

## C=CC(=O)N1CC[C@@H](N(C)c2nc(OC[C@@H]3CCCN3C)nc3c(F)c(-c4ccc(F)c5sc(N)c(C#N)c45)c(Cl)cc23)[C@H]1C (atropisomer, axis not shown) [Compound 119]
[1]
  GTP-KRAS G12C percent of modification: D (percent of modification <10%)
[2]
  GDP-KRAS G12C percent of modification: D (percent of modification <10%)
[3]
  IC50: 5000 to 20000 nM

## C=CC(=O)N1CC[C@@H](N(CC)c2nc(OC[C@@H]3CC4(CC4)CN3C)nc3c(F)c(-c4ccc(F)c5sc(N)c(C#N)c45)c(Cl)cc23)[C@H]1C (atropisomer, axis not shown) [Compound 120]
[1]
  GTP-KRAS G12C percent of modification: A (percent of modification ≥70%)
[2]
  GDP-KRAS G12C percent of modification: A (percent of modification ≥70%)
[3]
  IC50: < 500 nM

## C=CC(=O)N1CC[C@@H](N(CC)c2nc(OC[C@@H]3CC4(CC4)CN3C)nc3c(F)c(-c4ccc(F)c5sc(N)c(C#N)c45)c(Cl)cc23)[C@H]1C (atropisomer, axis not shown) [Compound 121]
[1]
  GTP-KRAS G12C percent of modification: D (percent of modification <10%)
[2]
  GDP-KRAS G12C percent of modification: D (percent of modification <10%)
[3]
  IC50: 5000 to 20000 nM

## C=CC(=O)N1CC[C@@H](N(C)c2nc(OC[C@@H]3CCCN3C)nc3c(F)c(-c4ccc(F)c5sc(N)c(C#N)c45)c(C(F)(F)F)cc23)[C@H]1C (atropisomer, axis not shown) [Compound 131]
[1]
  GTP-KRAS G12C percent of modification: A (percent of modification ≥70%)
[2]
  GDP-KRAS G12C percent of modification: A (percent of modification ≥70%)
[3]
  IC50: < 500 nM

## C=CC(=O)N1CC[C@@H](N(C)c2nc(OC[C@@H]3CCCN3C)nc3c(F)c(-c4ccc(F)c5sc(N)c(C#N)c45)c(C(F)(F)F)cc23)[C@H]1C (atropisomer, axis not shown) [Compound 132]
[1]
  GTP-KRAS G12C percent of modification: D (percent of modification <10%)
[2]
  GDP-KRAS G12C percent of modification: D (percent of modification <10%)
[3]
  IC50: 5000 to 20000 nM

## C=CC(=O)N1CC[C@H](N(CC)c2nc(OC[C@@]34CCCN3C[C@H](F)C4)nc3c(F)c(-c4ccc(F)c5sc(N)c(C#N)c45)c(C(F)(F)F)cc23)C1 (atropisomer, axis not shown) [Compound 171]
[1]
  GTP-KRAS G12C percent of modification: B (50≤percent of modification <70%)
[2]
  GDP-KRAS G12C percent of modification: C (10%≤percent of modification <50%)
[3]
  IC50: < 500 nM

## C=CC(=O)N1C[C@H](N(C)c2nc(OC[C@@]34CCCN3C[C@H](F)C4)nc3c(F)c(-c4ccc(F)c5sc(N)c(C#N)c45)c(C(F)(F)F)cc23)C[C@H]1C (atropisomer, axis not shown) [Compound 176]
[1]
  GTP-KRAS G12C percent of modification: A (percent of modification ≥70%)
[2]
  GDP-KRAS G12C percent of modification: A (percent of modification ≥70%)
[3]
  IC50: < 500 nM

## C=CC(=O)N1C[C@H](N(C)c2nc(OC[C@@]34CCCN3C[C@H](F)C4)nc3c(F)c(-c4ccc(F)c5sc(N)c(C#N)c45)c(C(F)(F)F)cc23)C[C@H]1C (atropisomer, axis not shown) [Compound 177]
[1]
  GTP-KRAS G12C percent of modification: D (percent of modification <10%)
[2]
  GDP-KRAS G12C percent of modification: D (percent of modification <10%)
[3]
  IC50: 500 to 5000 nM

## C=CC(=O)N1CC[C@@H](N(CC)c2nc(OC[C@@H]3C[C@@H](OC)CN3C)nc3c(F)c(-c4ccc(F)c5sc(N)c(C#N)c45)c(C(F)(F)F)cc23)[C@H]1C (single isomer, unassigned) [Compound 116]
[1]
  GTP-KRAS G12C percent of modification: A (percent of modification ≥70%)
[2]
  GDP-KRAS G12C percent of modification: A (percent of modification ≥70%)
[3]
  IC50: < 500 nM

## C=CC(=O)N1CC[C@@H](N(CC)c2nc(OC[C@@H]3C[C@@H](OC)CN3C)nc3c(F)c(-c4ccc(F)c5sc(N)c(C#N)c45)c(C(F)(F)F)cc23)[C@H]1C (single isomer, unassigned) [Compound 117]
[1]
  GTP-KRAS G12C percent of modification: D (percent of modification <10%)
[2]
  GDP-KRAS G12C percent of modification: D (percent of modification <10%)
[3]
  IC50: 5000 to 20000 nM

## C=CC(=O)N1CC[C@@H](N(C)c2nc(OC[C@@H]3C[C@@H](OC)CN3C)nc3c(F)c(-c4ccc(F)c5sc(N)c(C#N)c45)c(C(F)(F)F)cc23)[C@H]1C (single isomer, unassigned) [Compound 172]
[1]
  GTP-KRAS G12C percent of modification: A (percent of modification ≥70%)
[2]
  GDP-KRAS G12C percent of modification: A (percent of modification ≥70%)
[3]
  IC50: < 500 nM

## C=CC(=O)N1CC[C@@H](N(C)c2nc(OC[C@@H]3CCCN3CC)nc3c(F)c(-c4ccc(F)c5sc(N)c(C#N)c45)c(C(F)(F)F)cc23)[C@@H]1C [Compound 30]
[1]
  GTP-KRAS G12C percent of modification: B (50≤percent of modification <70%)
[3]
  IC50: < 500 nM

## C=CC(=O)N1CC[C@@H](N(C)c2nc(OC[C@@H]3C[C@@H](F)CN3C)nc3c(F)c(-c4ccc(F)c5sc(N)c(C#N)c45)c(C(F)(F)F)cc23)[C@@H]1C [Compound 32]
[1]
  GTP-KRAS G12C percent of modification: C (10%≤percent of modification <50%)
[3]
  IC50: < 500 nM

## C=CC(=O)N1C[C@@H](C)N(c2nc(OC[C@@]34CCCN3C[C@H](F)C4)nc3c(F)c(-c4ccc(F)c5sc(N)c(C#N)c45)c(C(F)(F)F)cc23)C[C@@H]1C [Compound 124]
[2]
  GDP-KRAS G12C percent of modification: B (50≤percent of modification <70%)
[3]
  IC50: < 500 nM

## C=CC(=O)N1CC[C@@H](N(C)c2nc(OC[C@@]34CCCN3C[C@H](OC)C4)nc3c(F)c(-c4ccc(F)c5sc(N)c(C#N)c45)c(C(F)(F)F)cc23)[C@H]1C [Compound 151]
[1]
  GTP-KRAS G12C percent of modification: A (percent of modification ≥70%)
[3]
  IC50: < 500 nM
